From patent US20240018125A1, “CYCLIC ISOTHIOUREA DERIVATIVES AS CXCR4 MODULATORS” (ERMIUM THERAPEUTICS, priority 2020, published 2024)
Where a name gives a salt, the structure may show the parent alone.

system: peripheral blood mononuclear cells (PBMCs) from healthy donors; test: IFN production by R848-activated PBMCs, quantified with twINNE luciferase reporter cell line; type: cell-based, human; settings: Homo sapiens, PBMC; read-out: IC50 of anti-inflammatory activity (IFN production by activated PBMCs)
Experimental: The blood from healthy donors was obtained from “Etablissement Français du Sang” (convention #19/EFS/029), Paris, France.
In vitro experiments were performed using human peripheral blood mononuclear cells (PBMCs) isolated by density centrifugation from peripheral blood leukocyte separation medium, lymphoprep (Stemcell Technologies).
PBMCs were cultured in RPMI 1640 (Sigma-Aldrich, MO, USA) containing 10% heat-inactivated fetal bovine serum (Sigma-Aldrich, MO, USA) at 37° C./5% CO2.
The PBMCs used herein were prepared as described in part A “immune cells preparation”, above. PBMCs were seeded at 4.10^6/mL. Cells were pre-treated with different concentration of examples according to the invention. Cells were then stimulated with the TLR7/8 agonist resiquimod—R848 (Sigma-Aldrich, MO, USA) at 5 μg/mL.
To quantify the secretion of functional IFN, a biological assay based on a stable cell line where luciferase reporter gene is controlled by five Interferon-Stimulated Response Elements (twINNE cell line) was used. First, supernatants of R848-stimulated PBMCs (see part B above) were harvested after 24 h of stimulation and frozen at −20° C. for storage. Then, supernatants were dispensed in culture wells of a 96-well plate containing 35.103 twINNE cells per well in Dulbecco's Modified Eagle's Medium supplemented with 10% Foetal Bovine Serum, 100 U/mL Penicillin and 100 μg/mL Streptomycin (1% Pen-Strep) and 1 mM glutamine (Sigma-Aldrich, MO, USA) at 37° C./5% CO2. After 24 h of culture, luciferase activity was determined by adding 60 μL of Bright-Glo reagents (Promega, Wisconsin, USA) to culture wells and measuring bioluminescence with EnSpire Multimode Plate Reader (PerkinElmer, Massachusetts, USA). When stated, for IC50 calculation, dose-response curves fitted using the nonlin fit (variable slope) analysis in GraphPad Prism software (GraphPad Software, Califronia, USA).
IFN production was quantified (as specified in Materials and Methods, part C “quantification of interferon secretion”) using twINNE reporter cell line.

`c1ccc(CC2CN=C(SCCCN3CCCC3)N2)cc1` (centres unmarked) [Example 52, 5-benzyl-2-((3-(pyrrolidin-1-yl)propyl)thio)-4,5-dihydro-1H-imidazole dihydrochloride] and `c1ccc(CC2CN=C(SCCCCN3CCCC3)N2)cc1` (centres unmarked) [Example 181, 5-benzyl-2-((4-(pyrrolidin-1-yl)butyl)thio)-4,5-dihydro-1H-imidazole dihydrochloride] cannot be ordered by IC50: greater than 32 µM for the first, greater than 32 µM for the second.

`C1=C(CSC2=NCc3ccccc3N2)N2CCc3ccccc3N=C2S1` [Example 35, 3-(((3,4-dihydroquinazolin-2-yl)thio)methyl)-5,6-dihydrobenzo[d]thiazolo[3,2-a][1,3]diazepine dihydrochloride] and `Fc1ccc2c(c1)CN1C(CSC3=NCc4ccccc4N3)=CSC1=N2` [Example 84, 3-(((1,4-dihydroquinazolin-2-yl)thio)methyl)-7-fluoro-5H-thiazolo[2,3-b]quinazoline dihydrochloride] cannot be ordered by IC50: no more than 10 µM for the first, no more than 10 µM for the second.

Compared with `Clc1ccc2c(c1)CN1C(CSC3=NCc4cc(Cl)ccc4N3)=CSC1=N2` [Example 44, 7-chloro-3-(((6-chloro-1,4-dihydroquinazolin-2-yl)thio)methyl)-5H-thiazolo[2,3-b]quinazoline dihydrochloride], `Clc1ccc2c(c1)CN=C(SCC1=CSC3=Nc4ccccc4CN13)N2` [Example 39, 3-(((6-chloro-1,4-dihydroquinazolin-2-yl)thio)methyl)-5H-thiazolo[2,3-b]quinazoline dihydrochloride] is lower in IC50: greater than 32 µM for the first, no more than 10 µM for the second.

`Fc1ccc(CC2CN3C(CSC4=NCc5ccccc5N4)=CSC3=N2)cc1` (centres unmarked) [Example 196, 3-(((1,4-dihydroquinazolin-2-yl)thio)methyl)-6-(4-fluorobenzyl)-5,6-dihydroimidazo[2,1-b]thiazole dihydrochloride] and `Clc1ccc(CC2CN3C(CSC4=NCc5ccccc5N4)=CSC3=N2)cc1` (centres unmarked) [Example 94, 6-(4-chlorobenzyl)-3-(((1,4-dihydroquinazolin-2-yl)thio)methyl)-5,6-dihydroimidazo[2,1-b]thiazole dihydrochloride] cannot be ordered by IC50: no more than 10 µM for the first, no more than 10 µM for the second.

`c1ccc(CC2CN=C(SCCN3CCCCC3)N2)cc1` (centres unmarked) [Example 50, 1-(2-((5-benzyl-4,5-dihydro-1H-imidazol-2-yl)thio)ethyl)piperidine dihydrochloride] and `c1ccc2c(c1)CN=C(SCCN1CCCC1)NC2` [Example 186, 3-((2-(pyrrolidin-1-yl)ethyl)thio)-2,5-dihydro-1H-benzo[e][1,3]diazepine dihydrochloride] cannot be ordered by IC50: greater than 32 µM for the first, greater than 32 µM for the second.

`Clc1cccc2c1NC(SCCCCN1CCCC1)=NC2` [Example 153, 8-chloro-2-((4-(pyrrolidin-1-yl)butyl)thio)-1,4-dihydroquinazoline dihydrochloride] and `Fc1ccc2c(c1)NC(SCCCCN1CCCC1)=NC2` [Example 151, 7-fluoro-2-((4-(pyrrolidin-1-yl)butyl)thio)-1,4-dihydroquinazoline dihydrochloride] cannot be ordered by IC50: no more than 10 µM for the first, no more than 10 µM for the second.

`CN1CCN=C1SCC1=CSC2=Nc3ccccc3CN12` [Example 36, 3-(((1-methyl-4,5-dihydro-1H-imidazol-2-yl)thio)methyl)-5H-thiazolo[2,3-b]quinazoline dihydrochloride] and `Clc1cccc2c1CN1C(CSC3=NCc4ccccc4N3)=CSC1=N2` [Example 81, 6-chloro-3-(((1,4-dihydroquinazolin-2-yl)thio)methyl)-5H-thiazolo[2,3-b]quinazoline dihydrochloride] cannot be ordered by IC50: no more than 10 µM for the first, no more than 10 µM for the second.

`c1ccc2c(c1)CN=C(SCCCCN1CCCC1)NC2` [Example 171, 3-((4-(pyrrolidin-1-yl)butyl)thio)-2,5-dihydro-1H-benzo[e][1,3]diazepine dihydrochloride] and `CC1(c2ccccc2)CN=C(SCCCCN2CCCC2)N1` (centres unmarked) [Example 170, 5-methyl-5-phenyl-2-((4-(pyrrolidin-1-yl)butyl)thio)-4,5-dihydro-1H-imidazole dihydrochloride] cannot be ordered by IC50: greater than 32 µM for the first, greater than 32 µM for the second.

`c1ccc(C2CCN(CCSC3=NCc4ccccc4N3)C2)cc1` (centres unmarked) [Example 140, 2-((2-(3-phenylpyrrolidin-1-yl)ethyl)thio)-1,4-dihydroquinazoline dihydrochloride] and `c1ccc2c(c1)CCN=C(SCCN1CCc3ccccc31)N2` [Example 192, 2-((2-(indolin-1-yl)ethyl)thio)-4,5-dihydro-1H-benzo[d][1,3]diazepine hydrochloride] cannot be ordered by IC50: no more than 10 µM for the first, 10 to 32 µM for the second.

`c1ccc2c(c1)CCN=C(SCCN1CCCc3ccccc31)N2` [Example 191, 2-((2-(3,4-dihydroquinolin-1(2H)-yl)ethyl)thio)-4,5-dihydro-1H-benzo[d][1,3]diazepine hydrochloride] and `C1=C(CSC2=NCc3ccccc3N2)N2CC(c3ccccc3)N=C2S1` (centres unmarked) [Example 120, 3-(((1,4-dihydroquinazolin-2-yl)thio)methyl)-6-phenyl-5,6-dihydroimidazo[2,1-b]thiazole dihydrochloride] cannot be ordered by IC50: 10 to 32 µM for the first, no more than 10 µM for the second.

`Clc1ccc2c(c1)CN=C(SCCCN1CCCC1)N2` [Example 161, 6-chloro-2-((3-(pyrrolidin-1-yl)propyl)thio)-1,4-dihydroquinazoline dihydrochloride] and `Clc1ccc2c(c1)CN=C(SCCCCn1ccnc1)N2` [Example 176, 2-((4-(1H-imidazol-1-yl)butyl)thio)-6-chloro-1,4-dihydroquinazoline dihydrochloride] cannot be ordered by IC50: no more than 10 µM for the first, 10 to 32 µM for the second.

`c1ccc2c(c1)CN=C(SC1CCCC[C@H]1N1CCCC1)N2` (stereo partly drawn) [Example 148, 2-(((2R)-2-(pyrrolidin-1-yl)cyclohexyl)thio)-1,4-dihydroquinazoline dihydrochloride] and `C1=C(CSC2=NCc3ccccc3N2)N2C[C@H](Cc3c[nH]c4ccccc34)N=C2S1` [Example 109, (S)-6-((1H-indol-3-yl)methyl)-3-(((1,4-dihydroquinazolin-2-yl)thio)methyl)-5,6-dihydroimidazo[2,1-b]thiazole dihydrochloride] cannot be ordered by IC50: no more than 10 µM for the first, no more than 10 µM for the second.

Compared with `Ic1cc2c(c(I)c1I)NC(SCCN1CCCC1)=NC2` [Example 134, 6,7,8-triiodo-2-((2-(pyrrolidin-1-yl)ethyl)thio)-1,4-dihydroquinazoline dihydrochloride], `COc1ccc(CC2(C)CN=C(SCCCCN3CCCC3)N2)cc1` (centres unmarked) [Example 169, 5-(4-methoxybenzyl)-5-methyl-2-((4-(pyrrolidin-1-yl)butyl)thio)-4,5-dihydro-1H-imidazole dihydrochloride] is higher in IC50: no more than 10 µM for the first, greater than 32 µM for the second.

`Clc1ccc2c(c1)CN=C(SCC1=CSC3=NCCN13)N2` [Example 10, 3-(((6-chloro-1,4-dihydroquinazolin-2-yl)thio)methyl)-5,6-dihydroimidazo[2,1-b]thiazole dihydrochloride] and `C1=C(CSC2=NCc3ccccc3N2)N2C(=N[C@H](c3ccccc3)[C@H]2c2ccccc2)S1` (relative stereo) [Example 16, trans-3-(((3,4-dihydroquinazolin-2-yl)thio)methyl)-5,6-diphenyl-5,6-dihydroimidazo[2,1-b]thiazole dihydrochloride] cannot be ordered by IC50: no more than 10 µM for the first, no more than 10 µM for the second.

In the case of `CCCCN1Cc2ccccc2N=C1SCC1=CSC2=NC(Cc3ccccc3)CN12` (centres unmarked) [Example 93, 6-benzyl-3-(((3-butyl-3,4-dihydroquinazolin-2-yl)thio)methyl)-5,6-dihydroimidazo[2,1-b]thiazole dihydrochloride], the IC50 is reported as no more than 10 µM.
